Source: patent publication US11219618B2, “Pyridylpyridone compounds” (Sprint Bioscience AB, priority 2017, dated 2022)

How the values were obtained:
[1] = tested on: autophagy in HOS cells (GFP-LC3); assay: High content screening autophagy assay (GFP-LC3 foci); format: cell-based; conditions: Homo sapiens; HOS cells expressing GFP-LC3; autophagy activated with KU-0063794 500 nM plus Bafilomycin A1 5 nM; 6 hours; foci area per cell; read-out: Median IC50 (μM) Cellular assay
Method: Human osteosarcoma cells (HOS) stably expressing a Green Fluorescent Protein (GFP) tagged LC3 (GFP-LC3) were used to determine the inhibitory effect on autophagy of proprietary compounds. For that purpose, autophagy was activated by using the mTOR inhibitor KU-0063794 at 500 nM in the presence of Bafilomycin A1 (Sigma-Aldrich) at 5 nM. Shortly, cells were plated overnight in clear bottom 96-well plates in DMEM—High Modified media (Hi-Clone Cat #SH30285.01). At the start of the experiment, the media was removed and replaced with fresh media containing the mTOR inhibitor, Bafilomycin A1 and the vehicle or a test compound as indicated. After 6 hours the media was removed, cells were washed twice with ice-cold phosphate buffered saline (PBS) and fixed with 4% paraformaldehyde for 20 minutes at room temperature. Then the cells were washed twice with ice-cold PBS before adding Hoechst 33342 at 1 μg/ml in PBS for nuclear staining. After incubation overnight at 4° C., cells were washed once with PBS to remove the excess of dye and 100 μl of PBS was added to each well. Images were acquired at 20× magnification, 6 images per well, using the ImageXpress automated microscope (Molecular Devices Inc.) and analyzed with MetaXpress software to identify LC3-GFP foci. Foci area per cell values were used to generate dose response curves and […] were calculated using the non-linear fitting analysis in GraphPad Prism software.
The results of the assay are shown in Table 2 (Median IC50 μM HOS-LC3).

[2] = biological target: Vps34 enzyme (Homo sapiens (Human), UniProt Q8NEB9); assay: Vps34 biochemical assay (Adapta kinase assay); conditions: 20 μM ATP and 200 μM PI:PS in substrate mix, 1 h at room temperature, TR-FRET, read-out: Median IC50 nM Adapta
Method: Dilution series of compounds of the invention were prepared in DMSO at 100 times the final assay concentration (n1=n0/3 in 10 points). The compounds were further diluted to 4 times the assay concentration in assay buffer (Life technologies buffer Q, PV5125, diluted 5 times supplemented with 2 mM DTT and 2 mM MnCl2). 2.5 μl of the diluted compounds were added to a 384 well assay plate followed by 2.5 μl of 16.5 nM Vps34 enzyme (Life technologies, PV5126). Enzyme and compounds were pre-incubated at rt for 15 min. Then 5 μl of substrate mix containing 20 μM ATP (Life technologies, PV3227) and 200 μM PI:PS substrate (Life technologies, PV5122) in assay buffer was added to the wells containing compound and enzyme. Mixing was performed by pipetting several times. The reaction was incubated at room temperature for 1 h. Then 5 μl stop-detection mix, prepared as described in the Adapta kinase assay kit instructions (Life technologies, PV5099) containing Adapta Eu-anti-ADP antibody (2.3 nM), Alexa Fluor 647 ADP tracer (9 nM) and EDTA (30 mM) in TR-FRET buffer, was added to quench the reaction. Mixing was performed by pipetting several times. The assay plate was then incubated at room temperature for 30 min and read with Artemis micro plate reader. Percent inhibition of the compounds as compared to DMSO treated control samples was calculated. By the use of Dotmatics software compound concentration versus percent inhibition was fitted to generate IC50 values.

Chain of Vps34 enzyme (Q8NEB9 whole entry): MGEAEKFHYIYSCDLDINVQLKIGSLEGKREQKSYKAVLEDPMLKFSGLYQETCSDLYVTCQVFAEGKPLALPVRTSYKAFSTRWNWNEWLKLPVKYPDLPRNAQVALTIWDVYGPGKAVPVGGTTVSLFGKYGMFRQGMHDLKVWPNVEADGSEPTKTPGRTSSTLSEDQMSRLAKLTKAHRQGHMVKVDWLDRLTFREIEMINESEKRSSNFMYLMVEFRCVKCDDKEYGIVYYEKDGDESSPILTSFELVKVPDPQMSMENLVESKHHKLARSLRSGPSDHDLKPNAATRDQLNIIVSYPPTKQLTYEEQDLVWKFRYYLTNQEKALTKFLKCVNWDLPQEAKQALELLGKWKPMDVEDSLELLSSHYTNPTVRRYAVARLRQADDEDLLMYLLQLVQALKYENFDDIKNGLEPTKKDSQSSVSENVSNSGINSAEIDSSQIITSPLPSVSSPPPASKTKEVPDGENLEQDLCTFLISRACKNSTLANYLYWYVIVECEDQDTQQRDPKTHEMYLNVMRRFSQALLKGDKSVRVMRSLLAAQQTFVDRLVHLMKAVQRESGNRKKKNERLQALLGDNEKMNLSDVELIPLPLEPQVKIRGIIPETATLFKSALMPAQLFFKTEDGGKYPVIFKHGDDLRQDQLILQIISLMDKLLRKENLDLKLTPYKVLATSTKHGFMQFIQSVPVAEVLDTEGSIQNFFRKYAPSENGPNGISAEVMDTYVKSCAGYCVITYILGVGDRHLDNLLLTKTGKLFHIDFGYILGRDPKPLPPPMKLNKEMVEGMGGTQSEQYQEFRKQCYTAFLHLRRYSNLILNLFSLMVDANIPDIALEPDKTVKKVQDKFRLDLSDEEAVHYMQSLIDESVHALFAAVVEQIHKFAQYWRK

| Structure (SMILES) | IC50 [1] [µM] | IC50 [2] [nM] |
| --- | --- | --- |
| CC(=O)Nc1cc(-c2cc(-c3ccccc3Cl)[nH]c(=O)c2)ccn1 [Example 1, N-[4-[2-(2-chlorophenyl)-6-oxo-1H-pyridin-4-yl]-2-pyridyl]acetamide] | 0.026 |  |
| Nc1cc(-c2cc(-c3cccnc3)[nH]c(=O)c2)ccn1 [Example 5, 4-(2-Amino-4-pyridyl)-6-(3-pyridyl)-1H-pyridin-2-one] |  | 410 |
| Nc1cc(-c2cc(-c3ccccc3Cl)[nH]c(=O)c2)ccn1 [Example 11, 4-(2-Amino-4-pyridyl)-6-(2-chlorophenyl)-1H-pyridin-2-one] | 0.742 | 45 |
| COCC(=O)Nc1cc(-c2cc(-c3ccccc3Cl)[nH]c(=O)c2)ccn1 [Example 12, N-[4-[2-(2-chlorophenyl)-6-oxo-1H-pyridin-4-yl]-2-pyridyl]-2-methoxy-acetamide] | 0.147 | 7 |
| CC(=O)Nc1cc(-c2cc(N3CCCCC3C(F)(F)F)[nH]c(=O)c2)ccn1 (stereo not drawn) [Example 19, N-[4-[2-oxo-6-[2-(trifluoromethyl)-1-piperidyl]-1H-pyridin-4-yl]-2-pyridyl]acetamide] | 0.067 | 12 |
| O=C(Nc1cc(-c2cc(N3CCCCC3C(F)(F)F)[nH]c(=O)c2)ccn1)C1CC1 (stereo not drawn) [Example 21, N-[4-[2-oxo-6-[2-(trifluoromethyl)-1-piperidyl]-1H-pyridin-4-yl]-2-pyridyl]cyclopropanecarboxamide] | 0.016 | < 5 |
| CC(=O)Nc1cc(-c2cc(N3CCOCC3C(F)(F)F)[nH]c(=O)c2)ccn1 (stereo not drawn) [Example 26, N-[4-[2-oxo-6-[3-(trifluoromethyl)morpholin-4-yl]-1H-pyridin-4-yl]-2-pyridyl]acetamide] | 0.113 | < 5 |
| CCS(=O)(=O)N1CCN(c2cc(-c3ccnc(NC(C)=O)c3)cc(=O)[nH]2)C(C(F)(F)F)C1 (stereo not drawn) [Example 30, N-[4-[2-[4-ethylsulfonyl-2-(trifluoromethyl)piperazin-1-yl]-6-oxo-1H-pyridin-4-yl]-2-pyridyl]acetamide] | 0.02 | < 5 |
| CC(=O)Nc1cc(-c2cc(N3CCOCC3C3CC3)[nH]c(=O)c2)ccn1 (stereo not drawn) [Example 32, N-[4-[2-(3-cyclopropylmorpholin-4-yl)-6-oxo-1H-pyridin-4-yl]-2-pyridyl]acetamide] |  | 5 |
| CC(=O)Nc1cc(-c2cc(-c3ccccc3C(F)(F)F)[nH]c(=O)c2)ccn1 [Example 34, N-[4-[2-oxo-6-[2-(trifluoromethyl)phenyl]-1H-pyridin-4-yl]-2-pyridyl]acetamide] | 0.063 | < 5 |
| CC(=O)Nc1cc(-c2cc(-c3cccnc3C(F)(F)F)[nH]c(=O)c2)ccn1 [Example 36, N-[4-[2-oxo-6-[2-(trifluoromethyl)-3-pyridyl]-1H-pyridin-4-yl]-2-pyridyl]acetamide] | 0.092 | < 5 |
| CC(=O)Nc1cc(-c2cc(-c3cccnc3C)[nH]c(=O)c2)ccn1 [Example 38, N-[4-[2-(2-methyl-3-pyridyl)-6-oxo-1H-pyridin-4-yl]-2-pyridyl]acetamide] |  | < 5 |
| CC(=O)Nc1cc(-c2cc(-c3cnccc3C)[nH]c(=O)c2)ccn1 [Example 40, N-[4-[2-(4-methyl-3-pyridyl)-6-oxo-1H-pyridin-4-yl]-2-pyridyl]acetamide] |  | < 5 |

Now from value to compound:

| IC50 [1] [µM] | IC50 [2] [nM] | Structure (SMILES) |
| --- | --- | --- |
| 0.046 | < 5 | CC(=O)Nc1cc(-c2cc(-c3cscc3C(F)(F)F)[nH]c(=O)c2)ccn1 [Example 42, N-[4-[2-oxo-6-[4-(trifluoromethyl)-3-thienyl]-1H-pyridin-4-yl]-2-pyridyl]acetamide] |
| 0.138 | < 5 | CCn1cc(-c2cc(-c3ccnc(NC(C)=O)c3)cc(=O)[nH]2)c(C(F)(F)F)n1 [Example 44, N-[4-[2-[1-ethyl-3-(trifluoromethyl)pyrazol-4-yl]-6-oxo-1H-pyridin-4-yl]-2-pyridyl]acetamide] |
| 0.023 | < 5 | COC(=O)Nc1cc(-c2cc(N3CCOCC3C(F)(F)F)[nH]c(=O)c2)ccn1 (stereo not drawn) [Example 45, Methyl N-[4-[2-oxo-6-[3-(trifluoromethyl)morpholin-4-yl]-1H-pyridin-4-yl]-2-pyridyl]carbamate] |
| 0.02 | < 5 | COC(=O)Nc1cc(-c2cc(-c3ccccc3C(F)(F)F)[nH]c(=O)c2)ccn1 [Example 48, Methyl N-[4-[2-oxo-6-[2-(trifluoromethyl)phenyl]-1H-pyridin-4-yl]-2-pyridyl]carbamate] |
| 0.029 | < 5 | COC(=O)Nc1cc(-c2cc(-c3ccccc3Cl)[nH]c(=O)c2)ccn1 [Example 50, Methyl N-[4-[2-(2-chlorophenyl)-6-oxo-1H-pyridin-4-yl]-2-pyridyl]carbamate] |
| 0.022 | < 5 | COC(=O)Nc1cc(-c2cc(-c3cccnc3C(F)(F)F)[nH]c(=O)c2)ccn1 [Example 52, Methyl N-[4-[2-oxo-6-[2-(trifluoromethyl)-3-pyridyl]-1H-pyridin-4-yl]-2-pyridyl]carbamate] |
| 0.105 | < 5 | CCn1cc(-c2cc(-c3ccnc(NC(=O)OC)c3)cc(=O)[nH]2)c(C(F)(F)F)n1 [Example 54, Methyl N-[4-[2-[1-ethyl-3-(trifluoromethyl)pyrazol-4-yl]-6-oxo-1H-pyridin-4-yl]-2-pyridyl]carbamate] |
|  | 50 | CN(C)C(=O)Nc1cc(-c2cc(-c3ccccc3C(F)(F)F)[nH]c(=O)c2)ccn1 [Example 62, 1,1-Dimethyl-3-[4-[2-oxo-6-[2-(trifluoromethyl)phenyl]-1H-pyridin-4-yl]-2-pyridyl]urea] |
|  | 147 | O=C(Nc1cc(-c2cc(-c3ccccc3C(F)(F)F)[nH]c(=O)c2)ccn1)N1CCCC1 [Example 66, N-[4-[2-oxo-6-[2-(trifluoromethyl)phenyl]-1H-pyridin-4-yl]-2-pyridyl]pyrrolidine-1-carboxamide] |
|  | 26 | COC(C)(C)C1CCCN1c1cc(-c2ccnc(NC(C)=O)c2)cc(=O)[nH]1 (stereo not drawn) [Example 68, N-[4-[2-[2-(1-methoxy-1-methyl-ethyl)pyrrolidin-1-yl]-6-oxo-1H-pyridin-4-yl]-2-pyridyl]acetamide] |
|  | < 5 | COC(=O)Nc1cc(-c2cc(N3CCCCC3C(F)(F)F)[nH]c(=O)c2)ccn1 (stereo not drawn) [Example 70, Methyl N-[4-[2-oxo-6-[2-(trifluoromethyl)-1-piperidyl]-1H-pyridin-4-yl]-2-pyridyl]carbamate] |
